Reference: patent US9072746B2, “Method for enhancing learning and memory impaired by neurodegenerative disorders and compounds and compositions for effecting the same” (The Board of Trustees of the Leland Stanford Junior …, priority 2010, dated 2015)
Entries after “also recorded” stand apart in the source; their conditions may differ.

Key:
Assay type in all cases: in vivo
male 2N mice [1] = assay: T-maze spontaneous alternation; conditions: xamoterol 3 mg/kg s.c. 1 h, betaxolol 1 mg/kg s.c. 30 min before testing
Excerpt: (§1) The T-maze had 3 equal arms (30 cm length, 10 cm width, and 20 cm height). The start arm and 2 goal arms had guillotine gates. This test was based on the rodents' preference to experience a new arm of the T-maze instead of a familiar one ([…], 1998). In each trial, the mouse was placed in the start arm. The gate was then opened and the mouse was able to freely explore the arms. As soon as the mouse entered one goal arm, the sliding gate of the other goal arm closed. The mouse eventually returned to the start arm and the next trial was started. In the next trial, the mouse may recognize the previously chosen goal arm and choose to explore a new arm rather than revisit the previously visited arm. This trial was repeated 11 times per day for 3 consecutive days, for a total of 33 trials. The maze was cleaned with 50% ethanol between trials to eliminate odor. Percent of alternation (number of turns in each goal arm) was used for analysis. This protocol has been described before by Belichenko et al. (2009) and is modified from a Deacon and Rawlins (2006) protocol (Deacon and Rawlins, 2006; Belichenko et al., 2009). […] In this part of the study, activity chamber and three cognitive tests, including T-maze spontaneous alternation, contextual fear conditioning (CFC), and novel object recognition were performed. In T-maze spontaneous alternation and contextual fear conditioning, both Ts65Dn and 2N male mice were divided into three treatment groups including normal saline (Vehicle), xamoterol, and betaxolol plus xamoterol groups. In the novel object recognition test, both Ts65Dn and 2N male mice were divided into two treatment groups, normal saline and xamoterol. The T-maze was performed exactly as previously described. […] On the first day (training day), animals were placed in the fear conditioning chamber, and after a 3-minute pre-shock period, they were exposed to 5 shocks (2 s, 0.5 mA,) with inter-trial intervals of 80 seconds and no tone. On the second day, the animals first received xamoterol, xamoterol plus betaxolol, or saline injection, and one hour later, they were placed in the same chamber for 5 minutes. Similar to the previous description of fear conditioning, freezing was defined as the complete lack of motion for a minimum of o.75 second. The Novel Object Recognition task is conducted in an open field arena (40 cm×40 cm). Mice were habituated in the testing room for 1 hour followed by 5 minutes habituation inside the arena without any objects. On 4th day animals were introduced 3 times to arena with 3 identical subjects for 10 minutes with 3 minutes inter trial intervals. On 5th day (24 hours after trainings) one of the objects replaced by a novel one and the time sniffing of each object were used for analysis. For testing the role of β1 adrenergic system, xamoterol and betaxolol (Tocris Bioscience, Ellisville, Mo.) were injected subcutaneously using 10 ml/kg normal saline as vehicle. Xamoterol, (3 mg/kg) was given one hour before testing and betaxolol (1 mg/kg) was given 30 minutes before testing.

male Ts65Dn mice [2] = assay: T-maze spontaneous alternation; conditions: for effect on T-maze spontaneous alternation deficit: xamoterol 3 mg/kg s.c.
Excerpt: as §1

male 2N mice [3] = assay: Contextual fear conditioning; conditions: xamoterol 3 mg/kg s.c. 1 h, betaxolol 1 mg/kg s.c. 30 min before testing
Protocol: (§2) Contextual and Cued fear conditioning was conducted for evaluation of fear-dependent learning and retrieval in the study. The test was performed using chambers from Coulbourn Instruments (Whitehall, Pa.). On the first day, the animals were placed in a chamber (Context A) for 3 min for baseline recording, followed by 5 tone-shock pairings. The shock (0.5 mA, 2 sec) was delivered following the tone (70 dB, 2 kHz, 20 sec) in each conditional/unconditional stimulus pairing. On the second day a novel chamber (Context B; new room, new olfactory environment, texture of floor, blue plastic inserts for walls, extra source of blue light, and visual cues) was used for cued testing. Three tones without shocks were presented to animals during a 3 min testing period following a 3 min pre-tone period. On the last day of the experiment, the mice were placed in Context A for 5 min without any conditional and unconditional stimulus {modified from the method described by (Saxe et al., 2006)}. Freezing was defined as the complete lack of motion for a minimum of 0.75 second as measured by FreezeFrame software (Actimetrics, Evanston, Ill.). The percent of freezing in each period was reported. For the startle response control test, an acoustic startle reflex apparatus (Med Associates Inc., St. Albans, Vt.) was used. The subjects were acclimated to the animal holder in the startle box for a total of 15 min over 3 consecutive-days prior to the experiment. The animals were exposed to 25 different trials with 10-20 second randomly variable inter-trial intervals. Five different intensities of startle pulses, 0, 90, 100, 110, and 120 dB, were randomly used, and each animal was randomly exposed 5 times to each intensity of the startle pulse. The duration of each startle pulse was 40 ms and the peak amplitude of the startle response in each trial was recorded for analysis. The holding cage on the apparatus was cleaned with 10% alcohol between each animal. […] In this part of the study, activity chamber and three cognitive tests, including T-maze spontaneous alternation, contextual fear conditioning (CFC), and novel object recognition were performed. In T-maze spontaneous alternation and contextual fear conditioning, both Ts65Dn and 2N male mice were divided into three treatment groups including normal saline (Vehicle), xamoterol, and betaxolol plus xamoterol groups. In the novel object recognition test, both Ts65Dn and 2N male mice were divided into two treatment groups, normal saline and xamoterol. The T-maze was performed exactly as previously described. […] On the first day (training day), animals were placed in the fear conditioning chamber, and after a 3-minute pre-shock period, they were exposed to 5 shocks (2 s, 0.5 mA,) with inter-trial intervals of 80 seconds and no tone. On the second day, the animals first received xamoterol, xamoterol plus betaxolol, or saline injection, and one hour later, they were placed in the same chamber for 5 minutes. Similar to the previous description of fear conditioning, freezing was defined as the complete lack of motion for a minimum of o.75 second. The Novel Object Recognition task is conducted in an open field arena (40 cm×40 cm). Mice were habituated in the testing room for 1 hour followed by 5 minutes habituation inside the arena without any objects. On 4th day animals were introduced 3 times to arena with 3 identical subjects for 10 minutes with 3 minutes inter trial intervals. On 5th day (24 hours after trainings) one of the objects replaced by a novel one and the time sniffing of each object were used for analysis. For testing the role of β1 adrenergic system, xamoterol and betaxolol (Tocris Bioscience, Ellisville, Mo.) were injected subcutaneously using 10 ml/kg normal saline as vehicle. Xamoterol, (3 mg/kg) was given one hour before testing and betaxolol (1 mg/kg) was given 30 minutes before testing.

male Ts65Dn mice [4] = assay: Contextual fear conditioning; conditions: for effect on memory retrieval deficit in contextual fear conditioning: xamoterol 3 mg/kg s.c. one hour before testing
Protocol: as §2

[5] = Plasma and brain sample analysis after subcutaneous injection (FIG. 10C, D); conditions: after subcutaneous injection of 3 mg/kg
Protocol: FIG. 10 Xamoterol improves the memory retrieval dose-dependently by interaction with the adrenergic receptors in central nervous system. […] In all experiments xamoterol 3 mg/kg, atenolol 3 mg/kg, and betaxolol 1 mg/kg were injected subcutaneously. […] Results are shown as mean+SEM (ns=not significant, *=p<0.05, and **=p<0.01).

[6] = xamoterol 3 mg/kg s.c. 1 h, betaxolol 1 mg/kg s.c. 30 min before testing

## O=C(NCCNCC(O)COc1ccc(O)cc1)N1CCOCC1 (centres unmarked) [xamoterol]
Male 2N mice [1]
  % of Spontaneous Alternation in T-maze, Mean ± SEM: 64.4 ± 2.1%
Male Ts65Dn mice [2]
  effect on T-maze spontaneous alternation deficit: completely rescue; also recorded: rescued
Male Ts65Dn mice [2]; [6]
  % of Spontaneous Alternation in T-maze, Mean ± SEM: 60.4 ± 4.5%
Male Ts65Dn mice [2]; listed as Xamoterol
  effect on T-maze spontaneous alternation deficit: rescued
Male Ts65Dn mice [2]; listed as Xamoterole
  effect on T-maze spontaneous alternation deficit: Xamoterole can rescue the deficit in
Male 2N mice [3]
  % Freshing in Tone-cued Fear Conditioning, Mean ± SEM: 38.43 ± 8.26%
Male Ts65Dn mice [4]; [6]
  % Freshing in Tone-cued Fear Conditioning, Mean ± SEM: 45.36 ± 12.40%
Male Ts65Dn mice [4]
  effect on memory retrieval deficit in contextual fear conditioning: completely rescue
Male Ts65Dn mice [4]; listed as Xamoterol
  effect on memory retrieval deficit in contextual fear conditioning: rescued; also recorded: improved
Male Ts65Dn mice [4]; listed as Xamoterole
  effect on memory retrieval deficit in contextual fear conditioning: Xamoterole rescues the deficit in
[5]
  access to blood and brain (plasma and brain samples): can get access to blood and brain
